This is an account of results in patent US9708336B2, “Metallo-beta-lactamase inhibitors” (priority 2014, dated 2017).

For one test, the target named is IMP-1 (Serratia marcescens, UniProt P52699). Briefly: biochemical. The test is classed as biochemical. As to conditions: fluorescence assay with CCF2-FA substrate; read-out: IMP-1 IC50.
In another test the target is VIM-1 (Pseudomonas aeruginosa (strain ATCC 15692 / DSM 22644 / CIP 104116 / JCM 14847 / LMG 12228 / 1C / PRS 101 / PAO1), UniProt A0A0F7KYQ8). Briefly: Enzyme activity: determination of IC50, fluorescence assay with CCF2-FA substrate (VIM-1). The test is classed as biochemical.
Another test addresses NDM-1 (Klebsiella pneumoniae, UniProt C7C422). Briefly: biochemical. The format is biochemical. Conditions: fluorescence assay with CCF2-FA substrate; read-out: NDM-1 IC50.
Test [1] has as its system Klebsiella pneumoniae expressing VIM-1 (IHMA599644). Briefly: Antibiotic potentiation activity: synergistic concentration (MITC95) with imipenem, OD600 growth. The format is cell-based. As to conditions: concentration giving 95% inhibition of bacterial growth. An outline of the steps: (§1)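 Compound activity is tested with and without imipenem, which is present at 4 μg/ml (or 1 μg/ml) in the well. Bacteria in 1.1× CAMHB are incubated 22–24 h at 35 °C; absorbance gives the growth endpoint.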

Test [2] deals with Serratia marcescens expressing IMP-1 (CL5741). Described as above. The format is cell-based. As to conditions: concentration giving 95% inhibition of bacterial growth. An outline of the steps:
as §1

Test [3] has as its system Escherichia coli expressing NDM-1 (CLB30005). Described as above. The format is cell-based. As to conditions: concentration giving 95% inhibition of bacterial growth. An outline of the steps: as §1
[4] abbreviates: VIM-1 IC50, fluorescence assay with CCF2-FA substrate.
[5] abbreviates: fluorescence assay with CCF2-FA substrate, read-out: VIM-1 IC50.

Read-outs that look alike come from different tables or passages of the source.

Chain of NDM-1 (C7C422 whole entry, looked up, species assumed): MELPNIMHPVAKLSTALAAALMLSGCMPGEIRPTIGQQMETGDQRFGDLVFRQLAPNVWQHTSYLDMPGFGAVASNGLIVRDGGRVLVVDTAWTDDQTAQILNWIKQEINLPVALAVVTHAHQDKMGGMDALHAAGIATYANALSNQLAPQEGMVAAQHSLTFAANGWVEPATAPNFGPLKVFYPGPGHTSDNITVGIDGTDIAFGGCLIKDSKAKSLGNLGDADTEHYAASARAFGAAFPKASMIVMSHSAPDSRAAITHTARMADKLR
Chain of IMP-1 (P52699 whole entry, looked up): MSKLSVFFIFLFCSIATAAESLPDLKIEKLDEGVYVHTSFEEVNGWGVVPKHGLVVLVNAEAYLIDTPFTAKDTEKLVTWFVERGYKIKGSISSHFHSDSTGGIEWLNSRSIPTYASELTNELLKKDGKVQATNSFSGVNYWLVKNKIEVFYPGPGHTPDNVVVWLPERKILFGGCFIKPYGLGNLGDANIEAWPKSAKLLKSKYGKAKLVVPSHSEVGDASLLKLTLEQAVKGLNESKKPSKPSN

The term IC50 denotes the midpoint of a concentration-inhibition curve. Regarding `NS(=O)(=O)c1cccc(-c2cn(S(=O)(=O)c3ccccc3)c3ncccc23)c1-c1nn[nH]n1` [Example 109, 3-[1-(phensulfonyl)-1H-pyrrolo[2,3-b]pyridin-3-yl]-2-(2H-tetrazol-5-yl)benzenesulfonamide], the IC50 was found to be 38.9 nM on IMP-1, 0.637 nM on VIM-1 (setting [4]) and 2.21 nM on NDM-1. The “Klebsiella pneumoniae expressing VIM-1 (IHMA 599644) MITC95” value in test [1] turned out to be 18.75 µM. In addition, in test [2], the “Serratia marcescens expressing IMP-1 (CL5741) MITC95” value is 12.89 µM. Besides, the “Escherichia coli expressing NDM-1 (CLB 30005) MITC95” value in test [3] was 12.5 µM.
As for `NS(=O)(=O)c1cccc(C#CCC2CNCCO2)c1-c1nn[nH]n1` (stereo not drawn) [Example 145, 3-(3-morpholin-2-ylprop-1-yn-1-yl)-2-(2H-tetrazol-5-yl)benzenesulfonamide], the concentration for half-maximal inhibition (IC50) is 2410 nM on IMP-1, 6410 nM on VIM-1 (setting [5]) and 191 nM at NDM-1. Further, the “Klebsiella pneumoniae expressing VIM-1 (IHMA 599644) MITC95” value in test [1] was greater than 200 µM. In addition, in test [2], the “Serratia marcescens expressing IMP-1 (CL5741) MITC95” value came out at 75 µM. The “Escherichia coli expressing NDM-1 (CLB 30005) MITC95” value in test [3] turned out to be 0.7813 µM.
For `NS(=O)(=O)c1cccc(C#Cc2cccnc2)c1-c1nn[nH]n1` [Example 147, 3-(pyridin-3-ylethynyl)-2-(2H-tetrazol-5-yl)benzenesulfonamide], the IC50 was 103 nM at IMP-1, 1100 nM on VIM-1 (setting [5]) and 16.4 nM on NDM-1. Also, in test [1], the “Klebsiella pneumoniae expressing VIM-1 (IHMA 599644) MITC95” value was greater than 200 µM. For the same compound, in test [2], the “Serratia marcescens expressing IMP-1 (CL5741) MITC95” value turned out to be 18.75 µM. For the same compound, in test [3], the “Escherichia coli expressing NDM-1 (CLB 30005) MITC95” value was 3.125 µM.
As for `NS(=O)(=O)c1cccc(C#CCN2CCS(=O)(=O)CC2)c1-c1nn[nH]n1` [Example 148, 3-[3-(1,1-dioxidothiomorpholin-4-yl)prop-1-yn-1-yl]-2-(2H-tetrazol-5-yl)benzenesulfonamide], the concentration for half-maximal inhibition (IC50) on IMP-1 was 550 nM; at VIM-1 (setting [5]), 3080 nM; on NDM-1, 131 nM. In addition, in test [1], the “Klebsiella pneumoniae expressing VIM-1 (IHMA 599644) MITC95” value was greater than 200 µM. Moreover, in test [2], the “Serratia marcescens expressing IMP-1 (CL5741) MITC95” value came out at 50 µM. Moreover, the “Escherichia coli expressing NDM-1 (CLB 30005) MITC95” value in test [3] came out at 6.25 µM.
As for `CS(=O)(=O)N1CCC(c2cccc(S(N)(=O)=O)c2-c2nn[nH]n2)CC1` [Example 172, 3-(1-(methylsulfonyl)piperidin-4-yl)-2-(2H-tetrazol-5-yl)benzenesulfonamide], the figures for the IC50 at IMP-1, at VIM-1 (setting [5]) and on NDM-1 were 720 nM, 421 nM and 16.5 nM, respectively. For the same compound, the “Klebsiella pneumoniae expressing VIM-1 (IHMA 599644) MITC95” value in test [1] amounted to 100 µM. Also, in test [2], the “Serratia marcescens expressing IMP-1 (CL5741) MITC95” value came out at 18.75 µM. In test [3], the “Escherichia coli expressing NDM-1 (CLB 30005) MITC95” value stood at 4.688 µM.
Turning to `CCOC(=O)N1CCC(c2cccc(S(N)(=O)=O)c2-c2nn[nH]n2)CC1` [Example 173, ethyl 4-(3-sulfamoyl-2-(2H-tetrazol-5-yl)phenyl)piperidine-1-carboxylate], the IC50 was 149 nM on IMP-1, 85.6 nM at VIM-1 (setting [4]) and 4.39 nM at NDM-1. Besides, the “Klebsiella pneumoniae expressing VIM-1 (IHMA 599644) MITC95” value in test [1] is greater than 200 µM. Besides, in test [2], the “Serratia marcescens expressing IMP-1 (CL5741) MITC95” value is 6.25 µM. Besides, the “Escherichia coli expressing NDM-1 (CLB 30005) MITC95” value in test [3] was 4.688 µM.
With `CCNC(=O)N1CCC(c2cccc(S(N)(=O)=O)c2-c2nn[nH]n2)CC1` [Example 174, N-ethyl-4-(3-sulfamoyl-2-(2H-tetrazol-5-yl)phenyl)piperidine-1-carboxamide], the IC50 at IMP-1 amounted to 403 nM; on VIM-1 (setting [5]), 262 nM; at NDM-1 it was 4.54 nM. In test [1], the “Klebsiella pneumoniae expressing VIM-1 (IHMA 599644) MITC95” value was determined as 100 µM. Moreover, the “Serratia marcescens expressing IMP-1 (CL5741) MITC95” value in test [2] was found to be 12.5 µM. For the same compound, in test [3], the “Escherichia coli expressing NDM-1 (CLB 30005) MITC95” value was 2.344 µM.
Take `NS(=O)(=O)c1cccc(C2CCCNC2)c1-c1nn[nH]n1` (stereo not drawn) [Example 175, 3-(piperidin-3-yl)-2-(2H-tetrazol-5-yl)benzenesulfonamide]: the values for the half-inhibitory concentration (IC50) at IMP-1, on VIM-1 (setting [5]) and on NDM-1 were 12400 nM, 3090 nM and 552 nM, respectively. Also, the “Klebsiella pneumoniae expressing VIM-1 (IHMA 599644) MITC95” value in test [1] stood at 75 µM. Also, the “Serratia marcescens expressing IMP-1 (CL5741) MITC95” value in test [2] was 37.5 µM. Besides, the “Escherichia coli expressing NDM-1 (CLB 30005) MITC95” value in test [3] was determined as 0.7813 µM.
For `NS(=O)(=O)c1cccc(C2CCCN(C(=O)C3CC3)C2)c1-c1nn[nH]n1` (stereo not drawn) [Example 177, 3-(1-(cyclopropanecarbonyl)piperidin-3-yl)-2-(2H-tetrazol-5-yl)benzenesulfonamide], the IC50 was found to be 668 nM at IMP-1, 733 nM at VIM-1 (setting [5]) and 12.8 nM on NDM-1. In addition, the “Klebsiella pneumoniae expressing VIM-1 (IHMA 599644) MITC95” value in test [1] was greater than 200 µM. Besides, the “Serratia marcescens expressing IMP-1 (CL5741) MITC95” value in test [2] worked out at 37.5 µM. The “Escherichia coli expressing NDM-1 (CLB 30005) MITC95” value in test [3] was determined as 6.25 µM.
For `COC(=O)c1ccc(-c2ccnc(S(N)(=O)=O)c2-c2nnn[nH]2)cc1` [Example 182, Methyl 4-(2-sulfamoyl-3-(1H-tetrazol-5-yl)pyridin-4-yl)benzoate], the IC50 turned out to be 348 nM at IMP-1, 91.4 nM at VIM-1 (setting [4]) and 32.4 nM at NDM-1. In test [1], the “Klebsiella pneumoniae expressing VIM-1 (IHMA 599644) MITC95” value amounted to 200 µM. Further, the “Serratia marcescens expressing IMP-1 (CL5741) MITC95” value in test [2] was 100 µM. The “Escherichia coli expressing NDM-1 (CLB 30005) MITC95” value in test [3] stood at 4.688 µM.
In the case of `NS(=O)(=O)c1nccc(-c2ccc(C(=O)O)cc2)c1-c1nnn[nH]1` [Example 183, 4-(2-Sulfamoyl-3-(1H-tetrazol-5-yl)pyridin-4-yl)benzoic acid], the IC50 at IMP-1 was 339 nM; against VIM-1 (setting [4]), 173 nM; at NDM-1, 11.5 nM. In addition, the “Klebsiella pneumoniae expressing VIM-1 (IHMA 599644) MITC95” value in test [1] amounted to 75 µM. For the same compound, the “Serratia marcescens expressing IMP-1 (CL5741) MITC95” value in test [2] stood at 50 µM. The “Escherichia coli expressing NDM-1 (CLB 30005) MITC95” value in test [3] worked out at 4.688 µM.
Consider `NC(=O)c1ccc(-c2ccnc(S(N)(=O)=O)c2-c2nnn[nH]2)cc1` [Example 184, 4-(2-Sulfamoyl-3-(1H-tetrazol-5-yl)pyridin-4-yl)benzamide], for which the IC50 was 602 nM on IMP-1, 164 nM on VIM-1 (setting [5]) and 66.9 nM on NDM-1. In addition, the “Klebsiella pneumoniae expressing VIM-1 (IHMA 599644) MITC95” value in test [1] was 25 µM. For the same compound, the “Serratia marcescens expressing IMP-1 (CL5741) MITC95” value in test [2] is 37.5 µM. In test [3], the “Escherichia coli expressing NDM-1 (CLB 30005) MITC95” value turned out to be 0.5859 µM.
As to `NS(=O)(=O)c1nccc(-c2ccc(C(=O)NC3CC3)cc2)c1-c1nnn[nH]1` [Example 185, N-Cyclopropyl-4-(2-sulfamoyl-3-(1H-tetrazol-5-yl)pyridin-4-yl)benzamide], the half-maximal inhibitory concentration (IC50) amounted to 1480 nM on IMP-1, 2020 nM at VIM-1 (setting [5]) and 135 nM at NDM-1. Further, the “Klebsiella pneumoniae expressing VIM-1 (IHMA 599644) MITC95” value in test [1] is greater than 200 µM. Also, the “Serratia marcescens expressing IMP-1 (CL5741) MITC95” value in test [2] is 75 µM. In addition, the “Escherichia coli expressing NDM-1 (CLB 30005) MITC95” value in test [3] came out at 2.344 µM.
Take `NS(=O)(=O)c1nccc(-c2ccc(C3CCOCC3)cc2)c1-c1nnn[nH]1` [Example 187, 4-(4-(Tetrahydro-2H-pyran-4-yl)phenyl)-3-(1H-tetrazol-5-yl)pyridine-2-sulfonamide]: the half-inhibitory concentration (IC50) was 28.9 nM at IMP-1, 150 nM on VIM-1 (setting [5]) and 2.81 nM at NDM-1. The “Klebsiella pneumoniae expressing VIM-1 (IHMA 599644) MITC95” value in test [1] was greater than 200 µM. The “Serratia marcescens expressing IMP-1 (CL5741) MITC95” value in test [2] stood at 25 µM. Further, the “Escherichia coli expressing NDM-1 (CLB 30005) MITC95” value in test [3] is 15.63 µM.
